Patent US20070049564A1 (Wyeth, priority 2005, published 2007)
Values after ≈ are worked out from the molar mass of the structure shown. Read-outs that look alike come from different tables or passages of the source.

Experiments:
[1] = system: S. cholerasius GC 1355; experiment: MIC, broth microdilution
[2] = system: Salmonella spp. GC 566; experiment: MIC, broth microdilution; details: Salmonella
Description: (§1) Antimicrobial susceptibility testing. The in vitro activities of the antibiotics are determined by the broth microdilution method as recommended by the National Committee for Clinical Laboratory Standards (NCCLS) (1). Mueller-Hinton II broth (MHBII)(BBL Cockeysville, Md.) is the medium employed in the testing procedures. Microtiter plates containing serial dilutions of each antimicrobial agent are inoculated with each organism to yield the appropriate density (10^5 CFU/ml) in a 100 μl final volume. The plates are incubated for 18-22 hours at 35° C. in ambient air.
Presented in Tables I-XIII are representative compounds of Formula I which were evaluated against a panel of 40 selected gram-positive and gram-negative bacteria strains by pre-incubation in water, mouse serum or human serum. Representative compounds were first incubated in mouse serum for an hour prior to the in vitro testing against a panel of selected gram-positive and gram-negative bacteria strains. All compounds were also pre-incubated in water for an hour prior to testing as control. Representative compounds of Formula I were incubated in human serum prior to MIC determination.

[3] = system: Salmonella spp. GC 235; experiment: MIC, broth microdilution; details: Salmonella
Description: as §1
Representative compounds were first incubated in mouse serum for an hour prior to the in vitro testing against a panel of selected gram-positive and gram-negative bacteria strains. All compounds were also pre-incubated in water for an hour prior to testing as control.

[4] = system: E. coli #311; experiment: In vivo activity (oral, iv; ED50) against E. coli in mice; details: Escherichia coli
From the text: . […] Smith and E. Coli #311 in mammals.
Results of the tests (MIC, oral and IV) are list in Table 7.

[5] = single intravenous dose (SIV), read-out: ED50 E. coli #311 SIV
[6] = single oral dose (SOD), read-out: ED50 E. coli #311 SOD

In the case of `CCCN(CC(=O)Nc1cc(N(C)C)c2c(c1O)C(=O)C1=C(O)[C@]3(O)C(=O)C(C(N)=O)=C(O)C(N(C)C)C3CC1C2)C(=O)OCc1oc(=O)oc1-c1ccccc1` (stereo in doubt) [Example 110, (2-oxo-5-phenyl-1,3-dioxol-4-yl)methyl 2-{[(7R,10aS)-9-(aminocarbonyl)-4,7-bis(dimethylamino)-1,8,10a,11-tetrahydroxy-10,12-dioxo-5,5a,6,6a,7,10,10a,12-octahydrotetracen-2-yl]amino}-2-oxoethyl(propyl)carbamate], the MIC ([1]; pre-incubation in mouse serum) is reported as > 64 µg/mL, the MIC ([1]; pre-incubation in water) is reported as > 64 µg/mL and the MIC ([2]; SPP.GC566, pre-incubation in mouse serum) is reported as 16 µg/mL (≈ 20.3 µM). For the same compound, the MIC ([2]; SPP.GC566, pre-incubation in water) was 32 µg/mL (≈ 40.5 µM), the MIC ([3]; SPP.GC235, pre-incubation in mouse serum) was 4 µg/mL (≈ 5.06 µM) and the MIC ([3]; SPP.GC235, pre-incubation in water) was 8 µg/mL (≈ 10.1 µM).
`CN(C)c1cc(NC(=O)CN(C(=O)OCOC(=O)c2ccc(C(C)(C)C)cc2)C(C)(C)C)c(O)c2c1C[C@H]1C[C@H]3[C@H](N(C)C)C(O)=C(C(N)=O)C(=O)[C@@]3(O)C(O)=C1C2=O` [Example 43, ({[(2-{[(5aR,6aS,7S,10aS)-9-(aminocarbonyl)-4,7-bis(dimethylamino)-1,8,10a,11-tetrahydroxy-10,12-dioxo-5,5a,6,6a,7,10,10a,12-octahydrotetracen-2-yl]amino}-2-oxoethyl)(tert-butyl)amino]carbonyl}oxy)methyl 4-tert-butylbenzoate] was tested, and the ED50 [4, 5] was 3.6 mg/kg and the ED50 [4, 6] was 60.4 mg/kg.
Work on `CN(C)c1cc(NC(=O)CN(C(=O)OCOC(=O)C2CCCC2)C(C)(C)C)c(O)c2c1C[C@H]1C[C@H]3[C@H](N(C)C)C(O)=C(C(N)=O)C(=O)[C@@]3(O)C(O)=C1C2=O` [Example 46, ({[(2-{[(5aR,6aS,7S,10aS)-9-(aminocarbonyl)-4,7-bis(dimethylamino)-1,8,10a,11-tetrahydroxy-10,12-dioxo-5,5a,6,6a,7,10,10a,12-octahydrotetracen-2-yl]amino}-2-oxoethyl)(tert-butyl)amino]carbonyl}oxy)methyl cyclopentanecarboxylate] yielded an ED50 [4, 5] of 2.16 mg/kg and an ED50 [4, 6] of 29.2 mg/kg.
With `CCCCOC(=O)N(CC(=O)Nc1cc(N(C)C)c2c(c1O)C(=O)C1=C(O)[C@]3(O)C(=O)C(C(N)=O)=C(O)[C@@H](N(C)C)[C@@H]3C[C@@H]1C2)C(C)(C)C` [Example 58, butyl 2-{[(5aR,6aS,7S,10aS)-9-(aminocarbonyl)-4,7-bis(dimethylamino)-1,8,10a,11-tetrahydroxy-10,12-dioxo-5,5a,6,6a,7,10,10a,12-octahydrotetracen-2-yl]amino}-2-oxoethyl(tert-butyl)carbamate] the ED50 [4, 5] was > 8 mg/kg and the ED50 [4, 6] was > 32 mg/kg.
`CC(C)COC(=O)N(CC(=O)Nc1cc(N(C)C)c2c(c1O)C(=O)C1=C(O)[C@]3(O)C(=O)C(C(N)=O)=C(O)[C@@H](N(C)C)[C@@H]3C[C@@H]1C2)C(C)(C)C` [Example 59, isobutyl 2-{[(5aR,6aS,7S,10aS)-9-(aminocarbonyl)-4,7-bis(dimethylamino)-1,8,10a,11-tetrahydroxy-10,12-dioxo-5,5a,6,6a,7,10,10a,12-octahydrotetracen-2-yl]amino}-2-oxoethyl(tert-butyl)carbamate] was tested, and the ED50 [4, 5] was > 8 mg/kg and the ED50 [4, 6] was > 32 mg/kg.
With `COC(=O)N(CC(=O)Nc1cc(N(C)C)c2c(c1O)C(=O)C1=C(O)[C@]3(O)C(=O)C(C(N)=O)=C(O)[C@@H](N(C)C)[C@@H]3C[C@@H]1C2)C(C)(C)C` [Example 60, methyl 2-{[(5aR,6aS,7S,10aS)-9-(aminocarbonyl)-4,7-bis(dimethylamino)-1,8,10a,11-tetrahydroxy-10,12-dioxo-5,5a,6,6a,7,10,10a,12-octahydrotetracen-2-yl]amino}-2-oxoethyl(tert-butyl)carbamate] the ED50 [4, 5] was > 8 mg/kg and the ED50 [4, 6] was > 32 mg/kg.
